Legend:
[1] = tested on: human dermal fibroblasts isolated from neonatal foreskin (HDFn); experiment: PPIase activity on cell surface (PACS), HDFn; assay type: cell-based; details: inhibitor final concentration of 10 µM
Experimental: To investigate PACS, we need to distinguish between different families of PPIase. […] PACS must also be distinguished from that in culture medium. Adhesive cells such as fibroblasts (human dermal fibroblasts isolated from neonatal foreskin (HDFn)) or mesenchymal stromal cells (MSCs) were washed by simple pipetting and pooling. Washing of suspension cells such as T cells was performed by centrifugation. After the first washing step, no change in PPIase activity in supernatant could be detected through the following washing steps. To minimize the potential damage to cells, one washing step was used in the PACS measurement for suspension cells (Supplementary Fig. 10). […] Adding SLF further reduced the isomerase activity in samples both with and without cells due to the FKBP in the fetal bovine serum (FBS)-containing medium. After the treatment of CsA/SLF, these was no difference in the substrate cis/trans isomerization rate in all the samples. Therefore, neither the cells nor the FBS in the culture medium interferes with the protease-coupled PPIase assay (Fig. 4b).
(§1) The assay was performed in a cold room. If there was no additional description, the assays were performed in CO2-independent medium supplemented with 10% (v/v) h.i. FBS (medium-h.i. FBS) and 2mM L-glutamine. […] FBS to a final concentration of 120 µg mL^−1 (two times substrate stock). α-Chymotrypsin was prepared freshly. Fifteen micrograms of α-chymotrypsin was dissolved in 2 mL medium-h.i. FBS, and the pH was adjusted with 10 µL 1 M NaOH. Five millimole CsA, SLF, and CsA/SLF mixture were prepared in DMSO.
(§2) The cells (10,000 per well) were cultured in 96-well plates for 24 h. The supernatant was removed by turning the plate upside down. The cells were washed three times for 5 min under gentle shaking using supplemented CO2-independent medium (100 µL/well), and the supernatant was removed as before. The cells were kept in supplemented CO2-independent medium (100 µL/well) for measuring PPIase activity.
(§3) The medium was removed with a pipette. […] The mixture was kept for 5 min without agitation, followed by 1.5 min of agitation (linear shaking by hand with a speed of around 200 rounds/min). Twenty microliters were taken from the supernatant and measured along with the cell fraction (the remaining 20 µL) for PPIase activity. The activity measurements were triggered by adding 20 µL α-chymotrypsin at time 0 min, followed by 1.5 min of agitation, and the reaction was stopped at time 2 min with 80 µL of 20% acetic acid followed by 15 rounds of up and down pipetting mixing. Four independent experiments were performed on the same day.

[2] = tested on: PPIase activity in culture medium (FKBP in the FBS-containing medium); experiment: PPIase activity in CO2-independent medium with or without FBS (control); assay type: biochemical, bovine; details: for Supernatant PPIase activity k, Exp. 1 / Supernatant PPIase activity k, Exp. 2 / Supernatant PPIase activity k, Exp. 3 / Supernatant PPIase activity k, Mean: no cells
Experimental: (§4) To investigate PACS, we need to distinguish between different families of PPIase. […] PACS must also be distinguished from that in culture medium. Adhesive cells such as fibroblasts (human dermal fibroblasts isolated from neonatal foreskin (HDFn)) or mesenchymal stromal cells (MSCs) were washed by simple pipetting and pooling. Washing of suspension cells such as T cells was performed by centrifugation. […] To minimize the potential damage to cells, one washing step was used in the PACS measurement for suspension cells (Supplementary Fig. 10).
as §1, with “NaOH.” for “NaOH. Five millimole CsA, SLF, and CsA/SLF mixture were prepared in DMSO.”

[3] = tested on: human mesenchymal stromal cells (MSCs); experiment: PPIase activity on cell surface (PACS), MSCs; assay type: cell-based; details: MSC, inhibitor final concentration of 10 µM
Experimental: as §4
as §1, with “NaOH.” for “NaOH. Five millimole CsA, SLF, and CsA/SLF mixture were prepared in DMSO.”
as §2, §3

Jurkat cells = experiment: PPIase activity on cell surface (PACS), Jurkat cells; assay type: cell-based; details: 1 µL medium with 200 µM inhibitor added to 19 µL
Experimental: as §4
as §1, with “NaOH.” for “NaOH. Five millimole CsA, SLF, and CsA/SLF mixture were prepared in DMSO.”
One or more flasks of cells (5 mL per flask, depending on the maximum culture density of each cell line) were harvested by centrifuging at 1000 rpm for 3 min. To remove PPIases from the supernatant originating from the culture, cells were washed one time with 2 mL CO2-independent medium and were resuspended in 1.6 mL of CO2-independent medium with substrate. The cells were centrifuged again, and then 800 µL of the supernatant was taken. The residual volume containing cells was suspended. Nineteen microliters of the cells or supernatant was pipetted to a non-binding 96-well microplate to measure PPIase activity. Four different conditions were performed. […] The plate was kept for 5 min without agitation. The activity measurements were triggered by adding 20 µL of α-chymotrypsin at time 0 min, followed by 1.5 min agitation, and the reaction was stopped after 2 min with 80 µL 20% acetic acid, followed by 15 rounds of up and down pipetting mixing. […]
For the Jurkat cell number activity measurements, two flasks of cells (10 mL) were harvested, washed, and suspended in 600 µL of CO2-independent medium with substrate. The cells were centrifuged again, and then 300 µL supernatant was taken to measure the activity. The residual volume with cells was suspended and used to measure activity (cell density: 2.4 × 10^7 cells/mL). Four different conditions were performed: 20 µL supernatant or cell with 0 µL substrate, 10 µL supernatant or cell with 10 µL substrate, 5 µL supernatant or cell with 15 µL substrate, and 2.5 µL supernatant or cell with 17.5 µL substrate. […]

Supernatant PPIase activity k, Exp. 1 ([2]; Medium with FBS): 0.00201 s⁻¹
Supernatant PPIase activity k, Exp. 2 ([2]; Medium with FBS): 0.00203 s⁻¹
Supernatant PPIase activity k, Exp. 3 ([2]; Medium with FBS): 0.00197 s⁻¹
Supernatant PPIase activity k, Mean ([2]; Medium with FBS): 0.002003 s⁻¹
Supernatant PPIase activity k, Exp. 1 ([2]; Medium without FBS): 0.00194 s⁻¹
Supernatant PPIase activity k, Exp. 2 ([2]; Medium without FBS): 0.00197 s⁻¹
Supernatant PPIase activity k, Exp. 3 ([2]; Medium without FBS): 0.00199 s⁻¹
Supernatant PPIase activity k, Mean ([2]; Medium without FBS): 0.001967 s⁻¹
inhibition of residual PPIase activity in the supernatant ([2]; supernatant / FBS-containing culture medium (Fig. 4b, first right)): completely inhibited
SMILES: CCC(C)(C)C(=O)C(=O)N1CCCC[C@H]1C(=O)O[C@H](CCc1ccc(OC)c(OC)c1)c1cccc(OCC(=O)O)c1 [SLF]
Supernatant PPIase activity k, Exp. 1 ([1]; supernatant): 0.00186 s⁻¹
Supernatant PPIase activity k, Exp. 2 ([1]; supernatant): 0.00236 s⁻¹
Supernatant PPIase activity k, Exp. 3 ([1]; supernatant): 0.00238 s⁻¹
Supernatant PPIase activity k, Mean ([1]; supernatant): 0.0022 s⁻¹
cell surface PPIase activity k, Exp. 2 ([1]; with cells): 0.0027 s⁻¹
cell surface PPIase activity k, Exp. 3 ([1]; with cells): 0.00286 s⁻¹
cell surface PPIase activity k, Exp. 4 ([1]; with cells): 0.00333 s⁻¹
cell surface PPIase activity k, Mean ([1]; with cells): 0.002963 s⁻¹
Supernatant PPIase activity k, Exp. 1 ([3]; supernatant): 0.0025 s⁻¹
Supernatant PPIase activity k, Exp. 2 ([3]; supernatant): 0.00238 s⁻¹
Supernatant PPIase activity k, Exp. 3 ([3]; supernatant): 0.00221 s⁻¹
Supernatant PPIase activity k, Exp. 4 ([3]; supernatant): 0.00211 s⁻¹
Supernatant PPIase activity k, Mean ([3]; supernatant): 0.0023 s⁻¹
cell surface PPIase activity k, Exp. 2 ([3]; with cells): 0.0036 s⁻¹
cell surface PPIase activity k, Exp. 3 ([3]; with cells): 0.00293 s⁻¹
cell surface PPIase activity k, Exp. 4 ([3]; with cells): 0.00339 s⁻¹
cell surface PPIase activity k, Mean ([3]; with cells): 0.003307 s⁻¹
Supernatant PPIase activity k, Exp. 1 (Jurkat cells; supernatant): 0.00208 s⁻¹
Supernatant PPIase activity k, Exp. 2 (Jurkat cells; supernatant): 0.00205 s⁻¹
Supernatant PPIase activity k, Exp. 3 (Jurkat cells; supernatant): 0.00194 s⁻¹
Supernatant PPIase activity k, Exp. 4 (Jurkat cells; supernatant): 0.00211 s⁻¹
Supernatant PPIase activity k, Exp. 5 (Jurkat cells; supernatant): 0.00203 s⁻¹
Supernatant PPIase activity k, Exp. 6 (Jurkat cells; supernatant): 0.00196 s⁻¹
Supernatant PPIase activity k, Mean (Jurkat cells; supernatant): 0.002028 s⁻¹
cell surface PPIase activity k, Cell (1st replicate column) (Jurkat cells; with cells): 0.0033 s⁻¹
cell surface PPIase activity k, Cell (2nd replicate column) (Jurkat cells; with cells): 0.00321 s⁻¹
cell surface PPIase activity k, Cell (3rd replicate column) (Jurkat cells; with cells): 0.00336 s⁻¹
cell surface PPIase activity k, Cell (4th replicate column) (Jurkat cells; with cells): 0.00308 s⁻¹
cell surface PPIase activity k, Cell (5th replicate column) (Jurkat cells; with cells): 0.00293 s⁻¹
cell surface PPIase activity k, Cell (6th replicate column) (Jurkat cells; with cells): 0.00306 s⁻¹
cell surface PPIase activity k, Mean (Jurkat cells; with cells): 0.003176 s⁻¹

— article PMC6370856, “Peptidyl prolyl cis/trans isomerase activity on the cell surface correlates with extracellular matrix development” (Communications Biology, 2019)
